Measurements: article PMC9571063 (Molecules, 2022)

Assays:
Assay in all cases: KINOMEscan
Type in all cases: binding
Conditions in all cases: read-out: Percent Control
[1] = molecular target: T1, MET (Homo sapiens, UniProt P08581)
T1 construct: purchased Eurofins DiscoverX KINOMEscan (scanMAX 468)

[2] = molecular target: T2, MELK (Homo sapiens, UniProt Q14680)
T2 construct: purchased Eurofins DiscoverX KINOMEscan (scanMAX 468)

[3] = molecular target: T3, MAP4K2 (Homo sapiens, UniProt Q12851)
T3 construct: purchased Eurofins DiscoverX KINOMEscan (scanMAX 468)

[4] = molecular target: T4, CAMKK2 (Homo sapiens, UniProt Q96RR4)
T4 construct: purchased Eurofins DiscoverX KINOMEscan (scanMAX 468)

[5] = molecular target: T5, ZAK (Homo sapiens, UniProt Q9NYL2)
T5 construct: purchased Eurofins (KINOMEscan, DiscoverX)

[6] = molecular target: T6, FLT3 (Homo sapiens, UniProt P36888)
T6 construct: purchased Eurofins DiscoverX KINOMEscan (scanMAX 468)

[7] = molecular target: T7, RSK2(Kin.Dom.1-N-terminal) (Homo sapiens, UniProt P51812)
T7 construct: RSK2(Kin.Dom.1-N-terminal); purchased Eurofins DiscoverX KINOMEscan (scanMAX 468)

[8] = molecular target: T8, PIM3 (Homo sapiens, UniProt Q86V86)
T8 construct: purchased Eurofins DiscoverX KINOMEscan (scanMAX 468)

[9] = molecular target: T9, SNRK (Homo sapiens, UniProt Q9NRH2)
T9 construct: purchased Eurofins DiscoverX KINOMEscan (scanMAX 468)
T9 sequence (Q9NRH2 whole entry): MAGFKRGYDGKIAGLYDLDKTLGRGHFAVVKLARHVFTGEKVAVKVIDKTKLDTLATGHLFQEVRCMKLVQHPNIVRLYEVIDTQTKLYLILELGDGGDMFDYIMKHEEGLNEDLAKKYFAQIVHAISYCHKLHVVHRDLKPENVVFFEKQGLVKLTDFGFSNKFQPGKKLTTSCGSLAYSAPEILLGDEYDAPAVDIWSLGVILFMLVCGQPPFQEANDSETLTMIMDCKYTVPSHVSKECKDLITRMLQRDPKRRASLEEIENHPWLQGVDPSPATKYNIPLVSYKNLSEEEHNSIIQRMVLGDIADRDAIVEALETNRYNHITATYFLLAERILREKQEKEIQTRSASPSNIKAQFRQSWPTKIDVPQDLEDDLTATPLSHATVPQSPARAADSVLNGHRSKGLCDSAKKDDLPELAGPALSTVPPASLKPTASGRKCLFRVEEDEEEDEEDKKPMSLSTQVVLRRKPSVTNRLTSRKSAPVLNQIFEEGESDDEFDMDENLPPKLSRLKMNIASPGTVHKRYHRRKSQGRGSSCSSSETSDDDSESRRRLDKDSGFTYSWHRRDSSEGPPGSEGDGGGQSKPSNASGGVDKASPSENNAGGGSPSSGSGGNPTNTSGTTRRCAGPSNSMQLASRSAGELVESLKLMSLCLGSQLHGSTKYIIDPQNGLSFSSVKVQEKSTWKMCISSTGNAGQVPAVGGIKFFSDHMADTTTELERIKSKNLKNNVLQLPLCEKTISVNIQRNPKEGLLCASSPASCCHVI

[10] = molecular target: T10, ERK2 (Homo sapiens, UniProt P28482)
T10 construct: purchased Eurofins DiscoverX KINOMEscan (scanMAX 468)

[11] = molecular target: T11, VPS34 (Homo sapiens, UniProt Q8NEB9)
T11 construct: purchased Eurofins DiscoverX KINOMEscan (scanMAX 468)

[12] = molecular target: T12, MARK1 (Homo sapiens, UniProt Q9P0L2)
T12 construct: purchased Eurofins DiscoverX KINOMEscan (scanMAX 468)

[13] = molecular target: T13, MYLK (Homo sapiens, UniProt Q15746)
T13 construct: purchased Eurofins DiscoverX KINOMEscan (scanMAX 468)

[14] = molecular target: T14, BTK (Homo sapiens, UniProt Q06187)
T14 construct: purchased Eurofins DiscoverX KINOMEscan (scanMAX 468)

[15] = molecular target: T15, FLT3(R834Q) (Homo sapiens, UniProt P36888, R834Q)
T15 construct: purchased Eurofins DiscoverX KINOMEscan (scanMAX 468)

[16] = molecular target: T16, KIT(D816V) (Homo sapiens, UniProt P10721, D816V)
T16 construct: purchased Eurofins DiscoverX KINOMEscan (scanMAX 468)

[17] = molecular target: T17, SgK110 (Homo sapiens, UniProt P0C264)
T17 construct: purchased Eurofins DiscoverX KINOMEscan (scanMAX 468)

[18] = molecular target: T18, ACVR2B (Homo sapiens, UniProt Q13705)
T18 construct: purchased Eurofins DiscoverX KINOMEscan (scanMAX 468)

[19] = molecular target: T19, WEE1 (Homo sapiens, UniProt P30291)
T19 construct: purchased Eurofins DiscoverX KINOMEscan (scanMAX 468)
T19 sequence (P30291 whole entry): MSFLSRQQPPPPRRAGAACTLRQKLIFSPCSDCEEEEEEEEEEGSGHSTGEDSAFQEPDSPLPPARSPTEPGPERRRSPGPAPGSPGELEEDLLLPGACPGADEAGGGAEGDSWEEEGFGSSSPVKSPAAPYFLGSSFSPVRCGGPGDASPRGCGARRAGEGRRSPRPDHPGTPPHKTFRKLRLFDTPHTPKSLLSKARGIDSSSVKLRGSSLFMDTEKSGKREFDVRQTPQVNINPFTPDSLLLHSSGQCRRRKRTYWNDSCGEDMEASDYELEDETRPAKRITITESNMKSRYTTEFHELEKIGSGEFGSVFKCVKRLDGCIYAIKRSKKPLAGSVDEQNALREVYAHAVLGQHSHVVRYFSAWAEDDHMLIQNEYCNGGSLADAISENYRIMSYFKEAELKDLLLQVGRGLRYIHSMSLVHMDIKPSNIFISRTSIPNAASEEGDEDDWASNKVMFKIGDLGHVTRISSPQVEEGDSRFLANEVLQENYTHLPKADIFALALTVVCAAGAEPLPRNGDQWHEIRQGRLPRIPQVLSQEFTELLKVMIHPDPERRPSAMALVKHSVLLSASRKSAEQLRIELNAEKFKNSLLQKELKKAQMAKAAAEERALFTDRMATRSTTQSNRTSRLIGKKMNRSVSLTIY

[20] = molecular target: T20, CDKL3 (Homo sapiens, UniProt Q8IVW4)
T20 construct: purchased Eurofins DiscoverX KINOMEscan (scanMAX 468)
T20 sequence (Q8IVW4 whole entry): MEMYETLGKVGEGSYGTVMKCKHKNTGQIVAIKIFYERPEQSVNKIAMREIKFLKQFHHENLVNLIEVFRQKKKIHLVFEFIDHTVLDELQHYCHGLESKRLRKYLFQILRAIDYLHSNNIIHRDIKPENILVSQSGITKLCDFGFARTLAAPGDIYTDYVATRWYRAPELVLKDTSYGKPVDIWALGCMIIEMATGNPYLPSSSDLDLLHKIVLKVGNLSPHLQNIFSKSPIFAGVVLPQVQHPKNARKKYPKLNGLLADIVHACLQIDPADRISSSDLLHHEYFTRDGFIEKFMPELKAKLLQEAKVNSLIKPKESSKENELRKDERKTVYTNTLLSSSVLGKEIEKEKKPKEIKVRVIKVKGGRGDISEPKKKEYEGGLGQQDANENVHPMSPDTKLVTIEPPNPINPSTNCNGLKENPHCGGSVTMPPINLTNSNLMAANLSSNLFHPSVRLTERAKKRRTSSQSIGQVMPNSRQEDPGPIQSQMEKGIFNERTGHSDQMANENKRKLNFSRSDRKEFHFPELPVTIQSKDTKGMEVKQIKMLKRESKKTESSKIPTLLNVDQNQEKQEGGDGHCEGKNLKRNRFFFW

[21] = molecular target: T21, PIK3CA(M1043I) (Homo sapiens, UniProt P42336, M1043I)
T21 construct: purchased Eurofins DiscoverX KINOMEscan (scanMAX 468)
T21 sequence (P42336 whole entry M1043I): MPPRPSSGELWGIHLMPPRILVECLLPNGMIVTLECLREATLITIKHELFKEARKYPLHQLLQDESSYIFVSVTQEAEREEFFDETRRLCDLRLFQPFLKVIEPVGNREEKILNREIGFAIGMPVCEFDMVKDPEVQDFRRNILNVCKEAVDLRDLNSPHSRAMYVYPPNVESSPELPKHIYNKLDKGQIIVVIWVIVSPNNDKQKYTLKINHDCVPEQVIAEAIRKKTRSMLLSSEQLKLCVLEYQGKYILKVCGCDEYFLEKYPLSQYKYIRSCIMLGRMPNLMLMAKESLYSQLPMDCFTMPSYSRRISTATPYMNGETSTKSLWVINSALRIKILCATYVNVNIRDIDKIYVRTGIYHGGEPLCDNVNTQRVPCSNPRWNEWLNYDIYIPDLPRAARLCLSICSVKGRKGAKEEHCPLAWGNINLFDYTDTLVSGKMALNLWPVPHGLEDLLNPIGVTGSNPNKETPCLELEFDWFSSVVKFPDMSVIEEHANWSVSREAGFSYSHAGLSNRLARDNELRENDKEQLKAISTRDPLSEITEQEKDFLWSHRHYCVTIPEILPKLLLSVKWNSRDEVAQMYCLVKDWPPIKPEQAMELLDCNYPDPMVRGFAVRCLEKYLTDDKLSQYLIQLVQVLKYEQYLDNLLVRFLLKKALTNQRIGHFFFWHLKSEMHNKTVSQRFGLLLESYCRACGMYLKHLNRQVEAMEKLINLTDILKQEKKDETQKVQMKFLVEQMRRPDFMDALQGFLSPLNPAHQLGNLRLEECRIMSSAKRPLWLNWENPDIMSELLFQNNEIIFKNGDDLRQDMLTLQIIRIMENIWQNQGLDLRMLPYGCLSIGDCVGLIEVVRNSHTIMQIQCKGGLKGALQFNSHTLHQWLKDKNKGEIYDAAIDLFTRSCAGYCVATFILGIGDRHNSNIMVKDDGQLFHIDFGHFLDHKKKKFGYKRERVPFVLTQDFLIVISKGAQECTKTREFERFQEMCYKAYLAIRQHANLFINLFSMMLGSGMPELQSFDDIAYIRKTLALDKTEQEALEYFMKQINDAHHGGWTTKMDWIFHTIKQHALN

[22] = molecular target: T22, PAK6 (Homo sapiens, UniProt Q9NQU5)
T22 construct: purchased Eurofins DiscoverX KINOMEscan (scanMAX 468)

[23] = molecular target: T23, NEK1 (Homo sapiens, UniProt Q96PY6)
T23 construct: purchased Eurofins DiscoverX KINOMEscan (scanMAX 468)

[24] = molecular target: T24, FLT3-autoinhibited (Homo sapiens, UniProt P36888)
T24 construct: purchased Eurofins DiscoverX KINOMEscan (scanMAX 468)

[25] = molecular target: T25, ERBB3 (Homo sapiens, UniProt P21860)
T25 construct: purchased Eurofins DiscoverX KINOMEscan (scanMAX 468)

[26] = molecular target: T26, STK16 (Homo sapiens, UniProt O75716)
T26 construct: purchased Eurofins DiscoverX KINOMEscan (scanMAX 468)
T26 sequence (O75716 whole entry): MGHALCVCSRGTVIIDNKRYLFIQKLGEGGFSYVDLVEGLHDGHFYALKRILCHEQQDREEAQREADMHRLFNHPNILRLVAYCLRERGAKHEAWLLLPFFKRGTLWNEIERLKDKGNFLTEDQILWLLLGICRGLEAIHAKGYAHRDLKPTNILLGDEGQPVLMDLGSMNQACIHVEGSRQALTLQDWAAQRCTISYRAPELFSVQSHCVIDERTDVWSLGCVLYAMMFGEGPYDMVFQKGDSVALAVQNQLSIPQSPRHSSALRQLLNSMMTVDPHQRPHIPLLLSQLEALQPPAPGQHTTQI

[27] = molecular target: T27, RPS6KA5(Kin.Dom.2-C-terminal) (Homo sapiens, UniProt O75582)
T27 construct: RPS6KA5(Kin.Dom.2-C-terminal); purchased Eurofins DiscoverX KINOMEscan (scanMAX 468)

[28] = molecular target: T28, NEK6 (Homo sapiens, UniProt Q9HC98)
T28 construct: purchased Eurofins DiscoverX KINOMEscan (scanMAX 468)

[29] = molecular target: T29, BMX (Homo sapiens, UniProt P51813)
T29 construct: purchased Eurofins DiscoverX KINOMEscan (scanMAX 468)

[30] = molecular target: T30, TIE1 (Homo sapiens, UniProt P35590)
T30 construct: purchased Eurofins DiscoverX KINOMEscan (scanMAX 468)

[31] = molecular target: T31, BMPR2 (Homo sapiens, UniProt Q13873)
T31 construct: purchased Eurofins DiscoverX KINOMEscan (scanMAX 468)

[32] = molecular target: T32, ABL1(Q252H)-nonphosphorylated (Homo sapiens, UniProt P00519, Q252H)
T32 construct: purchased Eurofins DiscoverX KINOMEscan (scanMAX 468)

[33] = molecular target: T33, PRKCQ (Homo sapiens, UniProt Q04759)
T33 construct: purchased Eurofins DiscoverX KINOMEscan (scanMAX 468)

[34] = molecular target: T34, JAK1(JH2domain-pseudokinase) (Homo sapiens, UniProt P23458)
T34 construct: JAK1(JH2domain-pseudokinase); purchased Eurofins DiscoverX KINOMEscan (scanMAX 468)

[35] = molecular target: T35, TAOK3 (Homo sapiens, UniProt Q9H2K8)
T35 construct: purchased Eurofins DiscoverX KINOMEscan (scanMAX 468)

[36] = molecular target: T36, SLK (Homo sapiens, UniProt Q9H2G2)
T36 construct: purchased Eurofins DiscoverX KINOMEscan (scanMAX 468)
T36 sequence (Q9H2G2 whole entry): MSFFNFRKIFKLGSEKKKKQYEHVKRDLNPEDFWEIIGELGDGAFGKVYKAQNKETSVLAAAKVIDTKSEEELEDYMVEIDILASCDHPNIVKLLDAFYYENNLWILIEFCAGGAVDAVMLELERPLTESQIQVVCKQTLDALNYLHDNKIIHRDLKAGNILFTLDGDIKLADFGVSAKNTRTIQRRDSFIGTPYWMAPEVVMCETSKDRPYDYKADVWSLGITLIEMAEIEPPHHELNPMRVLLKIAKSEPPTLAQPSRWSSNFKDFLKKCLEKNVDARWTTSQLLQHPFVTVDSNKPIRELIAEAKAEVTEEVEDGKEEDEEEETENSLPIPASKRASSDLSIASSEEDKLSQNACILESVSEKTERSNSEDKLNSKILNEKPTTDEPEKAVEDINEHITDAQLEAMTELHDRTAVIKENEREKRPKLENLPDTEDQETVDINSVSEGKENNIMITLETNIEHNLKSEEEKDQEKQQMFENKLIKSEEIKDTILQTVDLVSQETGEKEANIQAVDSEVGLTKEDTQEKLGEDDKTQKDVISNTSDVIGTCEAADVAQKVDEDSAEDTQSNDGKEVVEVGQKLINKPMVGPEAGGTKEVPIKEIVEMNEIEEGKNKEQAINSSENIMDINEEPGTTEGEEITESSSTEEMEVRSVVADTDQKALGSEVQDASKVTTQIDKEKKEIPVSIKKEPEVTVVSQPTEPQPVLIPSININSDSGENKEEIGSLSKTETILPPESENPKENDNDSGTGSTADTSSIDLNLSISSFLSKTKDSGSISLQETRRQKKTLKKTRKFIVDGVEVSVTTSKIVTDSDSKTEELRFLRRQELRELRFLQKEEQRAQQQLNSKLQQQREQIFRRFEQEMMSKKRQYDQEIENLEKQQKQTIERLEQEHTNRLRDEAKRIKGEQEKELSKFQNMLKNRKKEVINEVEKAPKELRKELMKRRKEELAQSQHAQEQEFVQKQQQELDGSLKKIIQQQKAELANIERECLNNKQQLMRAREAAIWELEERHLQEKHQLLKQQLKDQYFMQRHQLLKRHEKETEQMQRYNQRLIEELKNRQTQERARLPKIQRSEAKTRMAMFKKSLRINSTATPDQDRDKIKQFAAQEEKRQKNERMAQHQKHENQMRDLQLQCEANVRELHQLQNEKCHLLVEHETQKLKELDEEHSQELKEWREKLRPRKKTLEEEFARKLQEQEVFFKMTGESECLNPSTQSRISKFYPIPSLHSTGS

[37] = molecular target: T37, PIK3CA(E542K) (Homo sapiens, UniProt P42336, E542K)
T37 construct: purchased Eurofins DiscoverX KINOMEscan (scanMAX 468)
T37 sequence (P42336 whole entry E542K): as the sequence (P42336 whole entry M1043I) above, with E542K, I1043M counted along it

[38] = molecular target: T38, PIP5K1C (Homo sapiens, UniProt O60331)
T38 construct: purchased Eurofins DiscoverX KINOMEscan (scanMAX 468)

[39] = molecular target: T39, RSK3(Kin.Dom.1-N-terminal) (Homo sapiens, UniProt Q15349)
T39 construct: RSK3(Kin.Dom.1-N-terminal); purchased Eurofins DiscoverX KINOMEscan (scanMAX 468)
T39 sequence (Q15349 1-388 limits assumed): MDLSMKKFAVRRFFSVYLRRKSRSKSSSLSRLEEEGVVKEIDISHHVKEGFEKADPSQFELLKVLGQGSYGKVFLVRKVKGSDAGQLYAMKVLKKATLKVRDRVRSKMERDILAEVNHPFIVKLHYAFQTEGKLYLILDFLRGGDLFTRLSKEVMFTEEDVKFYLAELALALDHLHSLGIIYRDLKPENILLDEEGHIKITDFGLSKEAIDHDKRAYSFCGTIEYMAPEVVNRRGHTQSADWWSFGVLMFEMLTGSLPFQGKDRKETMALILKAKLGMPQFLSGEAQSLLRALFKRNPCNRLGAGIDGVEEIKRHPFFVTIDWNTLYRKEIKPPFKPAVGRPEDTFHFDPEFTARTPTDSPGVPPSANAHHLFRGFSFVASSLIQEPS

[40] = molecular target: T40, FYN (Homo sapiens, UniProt P06241)
T40 construct: purchased Eurofins DiscoverX KINOMEscan (scanMAX 468)

[41] = molecular target: T41, PLK4 (Homo sapiens, UniProt O00444)
T41 construct: purchased Eurofins DiscoverX KINOMEscan (scanMAX 468)

SMILES: Cc1ccc(-n2cc(COc3cccc4cnc(Nc5cccc(Cl)c5)nc34)nn2)c([N+](=O)[O-])c1 [DB18]
- remaining binding at 1 µM [1]: 95%
- remaining binding at 1 µM [2]: 100%
- remaining binding at 1 µM [3]: 100%
- remaining binding at 1 µM [4]: 100%
- remaining binding at 1 µM [5]: 97%
- remaining binding at 1 µM [6]: 84%
- remaining binding at 1 µM [7]: 100%
- remaining binding at 1 µM [8]: 100%
- remaining binding at 1 µM [9]: 100%
- remaining binding at 1 µM [10]: 100%
- remaining binding at 1 µM [11]: 100%
- remaining binding at 1 µM [12]: 99%
- remaining binding at 1 µM [13]: 92%
- remaining binding at 1 µM [14]: 100%
- remaining binding at 1 µM [15]: 87%
- remaining binding at 1 µM [16]: 100%
- remaining binding at 1 µM [17]: 85%
- remaining binding at 1 µM [18]: 100%
- remaining binding at 1 µM [19]: 100%
- remaining binding at 1 µM [20]: 94%
- remaining binding at 1 µM [21]: 100%
- remaining binding at 1 µM [22]: 100%
- remaining binding at 1 µM [23]: 100%
- remaining binding at 1 µM [24]: 100%
- remaining binding at 1 µM [25]: 99%
- remaining binding at 1 µM [26]: 41%
- remaining binding at 1 µM [27]: 100%
- remaining binding at 1 µM [28]: 100%
- remaining binding at 1 µM [29]: 100%
- remaining binding at 1 µM [30]: 100%
- remaining binding at 1 µM [31]: 100%
- remaining binding at 1 µM [32]: 88%
- remaining binding at 1 µM [33]: 100%
- remaining binding at 1 µM [34]: 100%
- remaining binding at 1 µM [35]: 100%
- remaining binding at 1 µM [36]: 100%
- remaining binding at 1 µM [37]: 80%
- remaining binding at 1 µM [38]: 100%
- remaining binding at 1 µM [39]: 100%
- remaining binding at 1 µM [40]: 93%
- remaining binding at 1 µM [41]: 99%
